Laboratory results: patent publication US9168247B2, “Beta carboline derivatives useful in the treatment of proliferative disorders” (FACULTES UNIVERSITAIRES NOTRE DAME DE LA PAIX, priority 2010, dated 2015)
Where two headings read alike, the source gives them in different places.

Tests used:
[1] = system: OE21 oesophageal cancer cells; test: MTT test, overall cell growth, OE21; format: cell-based, human
Protocol: (§1) MTT tests were performed in order to rapidly, i.e., within 5 days, measure the effect of the present compounds on the overall cell growth. The test measured the number of metabolically active living cells that were able to transform the yellow product 3-(4,5-dimethylthiazol-2-yl)-2,5-diphenyl tetrazolium bromide (herein referred as MTT) into the blue product formazan dye by mitochondrial reduction. The amount of formazan obtained at the end of the experiment, measured by means of a spectrophotometer, is directly proportional to the number of living cells. Optical density determination thus enabled a quantitative measurement of the effect of the investigated compounds as compared to the control condition (untreated cells) and/or to other reference compounds.
(§2) Five human cancer cell lines set forth in Table 3 were used in the MTT tests. These cancer cell lines cover two histological cancer types including glioma (Hs683, T98G, U373), and oesophageal (OE21, OE33) cancers. The U373 cell line is apoptosis-resistant but autophagy-sensitive.
(§3) To perform the assay, cells were allowed to grow in 96-well micro-wells with a flat bottom with an amount of 100 μl of cell suspension per well with 5,000 to 8,000 cells/well depending on the cell type used. Each cell line was seeded in its appropriate culture medium.
(§4) The detailed experimental procedure was as follows: after a 24-hour period of incubation at 37° C., the culture medium was replaced by 100 μl of fresh medium in which the tested compound was previously dissolved, at the following molar concentrations: 1×10^−8 M, 5×10^−8 M, 1×10^−7 M, 5×10^−7 M, 1×10^−6 M, 5×10^−6 M, 1×10^−5 M, 5×10^−5 M and 1×10^−4 M. Each experiment was performed in sestuplicate (6 times).
(§5) After 72 hours of incubation at 37° C. with (experimental conditions) or without (control condition) the compound to be tested, the medium was replaced by 100 μl MTT dissolved in RPMI (1640 without phenol red) at a concentration of 0.5 or 1 mg/ml. The micro-wells were subsequently incubated during 3 hours and a half at 37° C. and centrifuged at 1300 rpm during 10 minutes. MTT was removed and formazan crystals formed were dissolved in […]. The micro-wells were shaken for 5 minutes and read on a spectrophotometer at wavelengths of 570 nm (maximal formazan absorbance).
(§6) For each experimental condition, the mean optical density was calculated, allowing the determination of the percentage of remaining living cells in comparison to the control.
(§7) The origin of all the cell lines we used, along with their biological characteristics, and the validation procedures of the MTT colorimetric assay as employed here are fully detailed in Van Quaquebeke et al., 2005, J Med Chem 48:849-856; Ingrassia et al., 2009, J Med Chem 52:1100-1114; Mathieu et al., 2009, J Cell Mol Med, Feb. 20, 2009.

[2] = system: T98G glioma cells; test: MTT test, overall cell growth, T98G; format: cell-based, human; conditions: 72 hours of incubation
Protocol: as §1, §2, §3, §4, §5, §6, §7

[3] = system: U373 cells; test: Cellular imaging (videomicroscopy) of cultured U373 cells: antiproliferative class and global growth ratio; format: cell-based, human; parameters: key to Anti proliferative class / anti-proliferative class-GGR: class I: actually cytostatic for 3 days (<10% of cell death at the 3rd day); class II: cyctostatic but becomes cytotoxic with <10% cell death on the 2nd day, and >20% of cell death on the 3rd day; class III: cytostatic but rapidly becomes cytotoxic with <10% cell death on the 1st day, >20% of cell death on the 2nd day and >50% of cell death on the 3rd day; class IV: cytotoxic (>50% of cell death on the first day); conditions: for global growth ratio (GGR): GG treated cells/GG control cells, 72 h after drug addition, drug at its IC50 (MTT-test determined); for Anti proliferative class: cellular imaging of cultured U373 cells over three consecutive days
Source text: The effects of the di- and tri-substituted beta-carboline derivatives as described herein can also be determined on cell proliferation, migration and morphology by means of a cellular imaging approach (Debeir et al., Cytometry 60:29-40, 2004; Debeir et al., IEEE Trans Med Imaging 24:697-711, 2005) either in, e.g., the human U373-MG glioma cell line, which is apoptosis-resistant but autophagy-sensitive (Lefranc F et al., Neurosurgery 2008) or in, e.g., the human A549 non-small-cell-lung cancer cell line, which is apoptosis-resistant and autophagy-resistant (Mijatovic T et al., Neoplasia 2006, May; 8(5):402-12).
[…] The experiments are conducted in quadruplicates.
The behaviour of the cells, in terms of morphology, growth and death are thus investigated. The effect on the overall growth is measured by counting the number of cells on the first (0 h) and the last image (72 h) of each film. The global growth ratio (GGR) is then deduced by dividing the number of cells on the last image by the number of cells on the first image. The ratio GGRtreated cells/GGRcontrol cells is further calculated thereby providing a value that describes the effect of compounds of the present invention on the overall cell growth.
The methodology is fully described and validated in Debeir et al., 2008, Exp Cell Res 314:2985-2998 and Mathieu et al., 2009, J Cell Mol Med, Feb. 20, 2009.

[4] = system: Hs683 glioma cells; test: MTT test, overall cell growth, Hs683; format: cell-based, human
Protocol: as §1, §2, §3, §4, §5, §6, §7

[5] = system: human cancer cell lines (U373, T98G, Hs683, OE21, OE33); test: MTT test, mean over the cancer cell lines; format: cell-based; conditions: mean over the cancer cell lines, MTT test, read-out: IC50 Mean ± SEM
Protocol: as §1, §2, §3, §4, §5, §6, §7

[6] = system: U373 glioma cells; test: MTT test, overall cell growth, U373; format: cell-based, human; conditions: 72 hours of incubation
Protocol: as §1, §2, §3, §4, §5, §6, §7

[7] = system: OE33 oesophageal cancer cells; test: MTT test, overall cell growth, OE33; format: cell-based, human
Protocol: as §1, §2, §3, §4, §5, §6, §7

[8] = Homo sapiens, OE21, 72 hours of incubation
[9] = Homo sapiens, Hs 683, 72 hours of incubation
[10] = Homo sapiens, OE33, 72 hours of incubation

IC50 [1, 8] | IC50 ([2]; Homo sapiens, T98G) | IC50 [4, 9] | IC50 ([5]; Homo sapiens) | IC50 ([6]; Homo sapiens, U373 MG) | IC50 [7, 10] | IC50 ([1]; 72 hours of incubation) | IC50 [2] | IC50 ([4]; 72 hours of incubation) | IC50 [5] | IC50 [6] | IC50 ([7]; 72 hours of incubation) | SMILES | global growth ratio (GGR) [3] | Anti proliferative class [3]
 |  |  |  |  |  | 6 ± 0.6 µM | 5.6 ± 0.2 µM | 3.6 ± 0.1 µM | 5 ± 1 µM | 3.9 ± 0.2 µM | 5.5 ± 0.3 µM | Cc1c2[nH]c3cc(OCc4ccccc4)ccc3c2cc[n+]1Cc1ccccc1 [JR88] | 0.2 | II
 |  |  |  |  |  | 3.7 ± 0.1 µM | 3.5 ± 0.1 µM | 3.1 ± 0.1 µM | 3.4 ± 0.1 µM | 3.4 ± 0.1 µM |  | Cc1c2c(cc[n+]1Cc1ccccc1)c1ccc(OCCC(C)C)cc1n2CCC(C)C [PL13] |  | 
 |  |  |  |  |  | 7.6 ± 0.3 µM | 2.9 ± 0.4 µM | 4 ± 0.3 µM | 4 ± 1 µM | 2.5 ± 0.3 µM |  | Cc1c2c(cc[n+]1CCO)c1ccc(OCCC(C)C)cc1n2CCC(C)C [PL11] |  | 
 |  |  |  |  |  | 0.48 ± 0.04 µM | 0.41 ± 0.01 µM | 0.26 ± 0.01 µM | 0.34 ± 0.06 µM | 0.22 ± 0.03 µM |  | Cc1c2c(cc[n+]1CCC(C)C)c1ccc(OCCC(C)C)cc1n2CCC(C)C [PL12] |  | 
2.4 ± 0.3 µM | 2.4 ± 0.4 µM | 2.31 ± 0.09 µM | 2.3 ± 0.1 µM | 2 ± 0.3 µM |  |  |  |  |  |  |  | Cc1c2c(cc[n+]1CCc1ccccc1)c1ccc(OCc3ccccc3)cc1n2Cc1ccccc1 [PL4, 1-methyl-2-phenethyl-7-benzyloxy-9-benzyl-β-carbolin-2-ium bromide] |  | 
0.5 ± 0.09 µM | 1.2 ± 0.2 µM | 0.37 ± 0.03 µM | 0.6 ± 0.2 µM | 0.39 ± 0.01 µM |  |  |  |  |  |  |  | Cc1c2c(cc[n+]1CCC(C)C)c1ccc(OCc3ccccc3)cc1n2Cc1ccccc1 [PL2, 1-methyl-2-(3-methylbutyl)-7-benzyloxy-9-benzyl-β-carbolin-2-ium bromide] |  | 
 |  |  |  |  |  | 25 ± 4 µM | 61 ± 6 µM | 31 ± 3 µM | 32 ± 11 µM | 9 ± 2 µM |  | Cc1c2c(cc[n+]1CCO)c1ccc(OCc3ccccc3)cc1n2Cc1ccccc1 [PL1] |  | 

The remaining lines, values behind:

SMILES | IC50 [1, 8] | IC50 ([2]; Homo sapiens, T98G) | IC50 [4, 9] | IC50 ([5]; Homo sapiens) | IC50 ([6]; Homo sapiens, U373 MG) | IC50 [7, 10] | IC50 ([1]; 72 hours of incubation) | IC50 [2] | IC50 ([4]; 72 hours of incubation) | IC50 [5] | IC50 [6] | IC50 ([7]; 72 hours of incubation) | global growth ratio (GGR) [3] | Anti proliferative class [3]
CCCn1c2cc(OCc3ccccc3)ccc2c2cc[n+](Cc3ccc(F)cc3)c(C)c21.[Br-] [CV36, 1-methyl-2-(4-fluorobenzyl)-7-benzyloxy-9-propyl-β-carbolin-2-ium bromide] | 1.9 ± 0.3 µM | 5.7 ± 0.2 µM | 3.1 ± 0.6 µM | 2.5 ± 0.9 µM | 0.88 ± 0.06 µM | 1 ± 0.1 µM |  |  |  |  |  |  | 0.1 | IV (class IV: cytotoxic (>50% of cell death on the first day))
Cc1c2c(cc[n+]1Cc1ccccc1F)c1ccc(OCc3cccc(F)c3)cc1n2Cc1cccc(F)c1.[Br-] [CV19, 1-methyl-2-(2-fluorobenzyl)-7-(3-fluorobenzyl)oxy-9-(3-fluorobenzyl)-β-carbolin-2-ium bromide] | 1.4 ± 0.3 µM | 0.7 ± 0.2 µM | 2.2 ± 0.2 µM | 1.6 ± 0.4 µM | 0.6 ± 0.2 µM | 3 ± 0.2 µM |  |  |  |  |  |  | 0.2 | I (class I: actually cytostatic for 3 days (<10% of cell death at the 3rd day))
Cc1nccc2c3ccc(O)cc3n(Cc3ccccc3)c12 [CV27, 1-methyl-7-hydroxy-9-benzyl-β-carboline] | 35 ± 2 µM | 81 ± 11 µM | 79 ± 4 µM | 62 ± 11 µM | 80 ± 2 µM | 35 ± 2 µM |  |  |  |  |  |  | 0.2 | II
CCC[n+]1ccc2c3ccc(OCc4ccccc4)cc3n(Cc3ccccc3)c2c1C [CV56, 1-methyl-2-propyl-7-benzyloxy-9-benzyl-β-carbolin-2-ium bromide] | 3.4 ± 0.8 µM | 11 ± 1 µM | 0.6 ± 0.1 µM | 5 ± 2 µM | 2.5 ± 0.3 µM |  |  |  |  |  |  |  |  | 
COc1ccc2c(c1)[nH]c1c(C)nccc12 [harmine, reference compound] | 32 ± 2 µM | 24 ± 2 µM |  | 28 ± 3 µM | 32 ± 2 µM | 18 ± 1 µM |  |  |  |  |  |  |  | I (class I: actually cytostatic for 3 days (<10% of cell death at the 3rd day))
CCCCCC[n+]1ccc2c3ccc(OCc4ccccc4)cc3n(Cc3ccccc3)c2c1C [CV53, 1-methyl-2-hexyl-7-benzyloxy-9-benzyl-β-carbolin-2-ium bromide] | 1.9 ± 0.3 µM | 3.1 ± 0.5 µM | 0.6 ± 0.1 µM | 1.5 ± 0.6 µM | 0.66 ± 0.09 µM |  |  |  |  |  |  |  |  | 
Cc1c2c(cc[n+]1Cc1ccccc1F)c1ccc(OCc3ccc(F)cc3)cc1n2Cc1ccc(F)cc1.[Br-] [CV25, 1-methyl-2-(2-fluorobenzyl-7-(4-fluorobenzyl)oxy-9-(4-fluorobenzyl)-β-carbolin-2-ium bromide] |  |  |  |  |  |  | 1.6 ± 0.3 µM | 0.43 ± 0.02 µM | 1.2 ± 0.4 µM | 1.1 ± 0.3 µM | 0.46 ± 0.08 µM | 1.6 ± 0.2 µM |  | 
Cc1c2c(cc[n+]1CC(=O)c1ccccc1)c1ccc(OCc3ccccc3)cc1n2Cc1ccccc1 [CV52] |  |  |  |  |  |  | 17 ± 2 µM | 19 ± 2 µM | 26 ± 3 µM | 21 ± 2 µM | 22 ± 2 µM |  |  | 
Cc1c2c(cc[n+]1Cc1ccccc1F)c1ccc(OCc3ccc(F)cc3)cc1n2Cc1ccc(F)cc1.[Br-] [CV25] |  |  |  |  |  |  |  |  |  |  |  |  | 0.4 | I (class I: actually cytostatic for 3 days (<10% of cell death at the 3rd day))
